“And” between values parts separate entries of the source, which are not always exact repeats. Equal entries are not always repeated.
System: 252836-082-R-J2-PDC tumor spheroids, viability
Assay: Anticancer human tumor 252836-082-R-J2-PDC patient-derived head and neck squamous cell carcinoma cell line growth inhibition [PI3K]
Details: spheroids with HUVEC and MSC; for viability, T/C: stronger effect = lower value
Summary of the method: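 Spheroid viability read-out. Co-cultures contained the tumor line plus HUVEC and human MSCs. Each agent was paired with a PI3K inhibitor (inavolisib, alpelisib, duvelisib, copanlisib) across half-log dilutions starting at clinical Cmax, or at 10 microM when Cmax was unknown.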

[1] = curve of first compound, second compound 0.0316 µM
[2] = curve of first compound, second compound 0.1 µM
[3] = curve of first compound, second compound 0.316 µM
[4] = curve of first compound, second compound 1 µM
[5] = second compound 0.0316 µM, first compound 0.0316 µM
[6] = second compound 0.0316 µM, first compound 0.1 µM
[7] = second compound 0.0316 µM, first compound 0.316 µM
[8] = second compound 0.0316 µM, first compound 1 µM
[9] = second compound 0.0316 µM, first compound 3.16 µM
[10] = second compound 0.0316 µM, first compound 10 µM
[11] = second compound 0.1 µM, first compound 0.0316 µM
[12] = second compound 0.1 µM, first compound 0.1 µM
[13] = second compound 0.1 µM, first compound 0.316 µM
[14] = second compound 0.1 µM, first compound 1 µM
[15] = second compound 0.1 µM, first compound 3.16 µM
[16] = second compound 0.1 µM, first compound 10 µM
[17] = second compound 0.316 µM, first compound 0.0316 µM
[18] = second compound 0.316 µM, first compound 0.1 µM
[19] = second compound 0.316 µM, first compound 0.316 µM
[20] = second compound 0.316 µM, first compound 1 µM
[21] = second compound 0.316 µM, first compound 3.16 µM
[22] = second compound 0.316 µM, first compound 10 µM
[23] = second compound 1 µM, first compound 0.0316 µM
[24] = second compound 1 µM, first compound 0.1 µM
[25] = second compound 1 µM, first compound 0.316 µM
[26] = second compound 1 µM, first compound 1 µM
[27] = second compound 1 µM, first compound 3.16 µM
[28] = second compound 1 µM, first compound 10 µM
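Also: spheroids exposed to agents for seven days before readout.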
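For viability, T/C in this document: percent of vehicle DMSO control viability so 100% = untreated growth.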

Compound: CCCS(=O)(=O)Nc1ccc(F)c(C(=O)c2c[nH]c3ncc(-c4ccc(Cl)cc4)cc23)c1F + CC(Nc1ccc2c(c1)OCCn1cc(N3C(=O)OCC3C(F)F)nc1-2)C(N)=O
- IC50 (curve of first compound, second compound 0.00316 µM): 5.21 µM
- IC50 (curve of first compound, second compound 0.01 µM): 5.49 µM
- IC50 [1]: 4.3 µM
- IC50 [2]: 3.43 µM
- IC50 [3]: 3.84 µM
- IC50 [4]: < 0.0316 µM
- viability, T/C (second compound 0.00316 µM, first compound 0.0316 µM): 98%
- viability, T/C (second compound 0.00316 µM, first compound 0.1 µM): 90.1%
- viability, T/C (second compound 0.00316 µM, first compound 0.316 µM): 102%
- viability, T/C (second compound 0.00316 µM, first compound 1 µM): 103%
- viability, T/C (second compound 0.00316 µM, first compound 3.16 µM): 84.1%
- viability, T/C (second compound 0.00316 µM, first compound 10 µM): 5.37%
- viability, T/C (second compound 0.01 µM, first compound 0.0316 µM): 80.5%
- viability, T/C (second compound 0.01 µM, first compound 0.1 µM): 88.5%
- viability, T/C (second compound 0.01 µM, first compound 0.316 µM): 97.6%
- viability, T/C (second compound 0.01 µM, first compound 1 µM): 100%
- viability, T/C (second compound 0.01 µM, first compound 3.16 µM): 92.3%
- viability, T/C (second compound 0.01 µM, first compound 10 µM): 4.83%
- viability, T/C [5]: 76.3%
- viability, T/C [6]: 90%
- viability, T/C [7]: 87%
- viability, T/C [8]: 91.2%
- viability, T/C [9]: 66.9%
- viability, T/C [10]: 3.26%
- viability, T/C [11]: 71.9%
- viability, T/C [12]: 77.4%
- viability, T/C [13]: 69.1%
- viability, T/C [14]: 66.4%
- viability, T/C [15]: 54.5%
- viability, T/C [16]: 4.8%
- viability, T/C [17]: 64.4%
- viability, T/C [18]: 67.4%
- viability, T/C [19]: 65.8%
- viability, T/C [20]: 48.9%
- viability, T/C [21]: 59.7%
- viability, T/C [22]: 4.86%
- viability, T/C [23]: 49.1%
- viability, T/C [24]: 48.2%
- viability, T/C [25]: 46%
- viability, T/C [26]: 46.2%
- viability, T/C [27]: 41.3%
- viability, T/C [28]: 5.27%

Compound: CC(=O)c1c(C)c2cnc(Nc3ccc(N4CCNCC4)cn3)nc2n(C2CCCC2)c1=O
- viability, T/C (compound 0.000316 µM): 95.4% [middle of 4 runs]
- viability, T/C (compound 0.001 µM): 95.7% [middle of 4 runs]
- viability, T/C (compound 0.00316 µM): 93.9% and 100% (2×) and 83.1%
- viability, T/C (compound 0.01 µM): 97.5% [middle of 4 runs]
- viability, T/C (compound 0.0316 µM): 87.3% [middle of 4 runs]
- viability, T/C (compound 0.1 µM): 95.2% [middle of 4 runs]
- IC50 (curve of compound): > 0.1 µM

Compound: CNC(=O)c1ccc(N2C(=S)N(c3ccc(C#N)c(C(F)(F)F)c3)C(=O)C2(C)C)cc1F + CC(Nc1ncnc2nc[nH]c12)c1cc2cccc(Cl)c2c(=O)n1-c1ccccc1
- IC50 [1]: > 10 µM
- IC50 [2]: > 10 µM
- IC50 [3]: > 10 µM
- IC50 [4]: > 10 µM
- IC50 (curve of first compound, second compound 3.16 µM): > 10 µM
- IC50 (curve of first compound, second compound 10 µM): > 10 µM
- viability, T/C [5]: 103%
- viability, T/C [6]: 83.9%
- viability, T/C [7]: 91.7%
- viability, T/C [8]: 85.1%
- viability, T/C [9]: 98.2%
- viability, T/C [10]: 93.4%
- viability, T/C [11]: 86.4%
- viability, T/C [12]: 83.5%
- viability, T/C [13]: 113%
- viability, T/C [14]: 91.2%
- viability, T/C [15]: 86.2%
- viability, T/C [16]: 78.6%
- viability, T/C [17]: 102%
- viability, T/C [18]: 79.5%
- viability, T/C [19]: 90.5%
- viability, T/C [20]: 90.2%
- viability, T/C [21]: 88.7%
- viability, T/C [22]: 78%
- viability, T/C [23]: 80.9%
- viability, T/C [24]: 94.9%
- viability, T/C [25]: 90.9%
- viability, T/C [26]: 89.6%
- viability, T/C [27]: 94%
- viability, T/C [28]: 80.6%
- viability, T/C (second compound 3.16 µM, first compound 0.0316 µM): 85.7%
- viability, T/C (second compound 3.16 µM, first compound 0.1 µM): 73.2%
- viability, T/C (second compound 3.16 µM, first compound 0.316 µM): 75.7%
- viability, T/C (second compound 3.16 µM, first compound 1 µM): 74.3%
- viability, T/C (second compound 3.16 µM, first compound 3.16 µM): 86.4%
- viability, T/C (second compound 3.16 µM, first compound 10 µM): 62.2%
- viability, T/C (second compound 10 µM, first compound 0.0316 µM): 63%
- viability, T/C (second compound 10 µM, first compound 0.1 µM): 71.8%
- viability, T/C (second compound 10 µM, first compound 0.316 µM): 70.9%
- viability, T/C (second compound 10 µM, first compound 1 µM): 70.5%
- viability, T/C (second compound 10 µM, first compound 3.16 µM): 69.8%
- viability, T/C (second compound 10 µM, first compound 10 µM): 59.3%

Reference: PubChem BioAssay AID1963985 (Molecular Pharmacology Branch, DTP, NCI, 2024)
